# Patent US20090087845A1, “Genetic Markers Of True Low Birth Weight” (priority 2005, published 2009)
# Test system: placental gene expression
smiles,measurement,setting,value
CCO [alcohol],"Mean 5%, probe set 1385639_at","5% alcohol group, Mean Contr 4.981165",4.504
same,"Mean 5%, Inpp1 (1394340_at)","5% alcohol group, Mean Contr 5.05511",4.704
same,"Mean 5%, RT1-Aw2 (1379496_at)","5% alcohol group, Mean Contr 5.19844",4.65
same,"Mean 5%, Trp53rk_predicted (1379488_at)","5% alcohol group, Mean Contr 5.228085",4.923
same,"Mean 5%, Enpp5 (1388926_at)","5% alcohol group, Mean Contr 5.277582",4.894
same,"Mean 5%, Prdm2_mapped (1381229_at)","5% alcohol group, Mean Contr 5.346211",4.872
same,"Mean 5%, RGD1564011_predicted (1375191_at)","5% alcohol group, Mean Contr 5.471081",5.008
same,"Mean 5%, Centa2 (1369725_at)","5% alcohol group, Mean Contr 5.497342",5.089
same,"Mean 5%, Transcribed locus (1383789_at)","5% alcohol group, Mean Contr 5.574571",5.342
same,"Mean 5%, Transcribed locus (1392286_at)","5% alcohol group, Mean Contr 5.585624",5.242
same,"Mean 5%, Mcpt6 (1387334_at)","5% alcohol group, Mean Contr 5.601581",5.206
same,"Mean 5%, Ggps1 (1377866_a_at)","5% alcohol group, Mean Contr 5.646626",5.273
same,"Mean 5%, Transcribed locus (1389718_at)","5% alcohol group, Mean Contr 5.751838",5.09
same,"Mean 5%, Transcribed locus (1377021_at)","5% alcohol group, Mean Contr 5.80011",5.149
same,"Mean 5%, Cp (1368418_a_at)","5% alcohol group, Mean Contr 5.816824",5.332
same,"Mean 5%, LOC303515 (1383571_at)","5% alcohol group, Mean Contr 5.867879",5.339
same,"Mean 5%, Transcribed locus (1389111_at)","5% alcohol group, Mean Contr 5.875325",5.42
same,"Mean 5%, Transcribed locus (1393980_at)","5% alcohol group, Mean Contr 5.991591",5.335
same,"Mean 5%, Pcmtd2_predicted (1374454_at)","5% alcohol group, Mean Contr 6.083112",5.464
same,"Mean 5%, Plek (1390687_at)","5% alcohol group, Mean Contr 6.105485",5.536
same,"Mean 5%, Cdca7 (1374540_at)","5% alcohol group, Mean Contr 6.195992",5.287
same,"Mean 5%, Cul2_predicted (1378127_at)","5% alcohol group, Mean Contr 6.258107",5.629
same,"Mean 5%, Pex6 (1368264_at)","5% alcohol group, Mean Contr 6.259265",5.664
same,"Mean 5%, St3gal3 (1373607_at)","5% alcohol group, Mean Contr 6.298338",5.956
same,"Mean 5%, Kbtbd4_predicted (1374614_at)","5% alcohol group, Mean Contr 6.314496",5.868
same,"Mean 5%, Phyh (1393245_at)","5% alcohol group, Mean Contr 6.483711",5.646
same,"Mean 5%, LOC287533 (1373627_at)","5% alcohol group, Mean Contr 6.526312",5.83
same,"Mean 5%, Transcribed locus (1388465_at)","5% alcohol group, Mean Contr 6.549543",6.133
same,"Mean 5%, Mss4 (1376745_at)","5% alcohol group, Mean Contr 6.629539",6.082
same,"Mean 5%, Plag1 (1391714_at)","5% alcohol group, Mean Contr 6.670053",5.859
same,"Mean 5%, Sumf1_predicted (1389833_at)","5% alcohol group, Mean Contr 6.839621",6.464
same,"Mean 5%, Polr3e_predicted (1374415_at)","5% alcohol group, Mean Contr 6.849002",6.356
same,"Mean 5%, RGD1308959 (1399108_at)","5% alcohol group, Mean Contr 6.859582",6.437
same,"Mean 5%, Wig1 (1387021_at)","5% alcohol group, Mean Contr 6.895168",6.437
same,"Mean 5%, probe set 1379314_at","5% alcohol group, Mean Contr 6.970231",6.195
same,"Mean 5%, Ddx59 (1383635_at)","5% alcohol group, Mean Contr 6.981191",6.627
same,"Mean 5%, Rnd3 (1394077_at)","5% alcohol group, Mean Contr 7.018906",6.516
same,"Mean 5%, probe set 1393037_at","5% alcohol group, Mean Contr 7.020197",6.711
same,"Mean 5%, Slc39a4_predicted (1374366_at)","5% alcohol group, Mean Contr 7.252498",6.553
same,"Mean 5%, RGD1305243_predicted (1374076_at)","5% alcohol group, Mean Contr 7.300542",6.98
same,"Mean 5%, Transcribed locus (1393310_at)","5% alcohol group, Mean Contr 7.364799",6.579
same,"Mean 5%, Gusb (1367901_at)","5% alcohol group, Mean Contr 7.420203",6.975
same,"Mean 5%, probe set 1392953_at","5% alcohol group, Mean Contr 7.435411",6.789
same,"Mean 5%, Crsp9_predicted (1377263_at)","5% alcohol group, Mean Contr 7.471023",6.737
same,"Mean 5%, probe set 1389582_at","5% alcohol group, Mean Contr 7.588214",6.742
same,"Mean 5%, Transcribed locus (1393226_at)","5% alcohol group, Mean Contr 7.705027",6.779
same,"Mean 5%, RGD1565289_predicted (1375297_at)","5% alcohol group, Mean Contr 7.731478",6.938
same,"Mean 5%, Zfp207 (1394591_at)","5% alcohol group, Mean Contr 8.125942",7.43
same,"Mean 5%, Akr7a2 (1367843_at)","5% alcohol group, Mean Contr 8.276972",7.547
same,"Mean 5%, Tparl (1373392_at)","5% alcohol group, Mean Contr 8.308305",8.164
same,"Mean 5%, Mcts1 (1388660_at)","5% alcohol group, Mean Contr 8.623529",8.191
same,"Mean 5%, Hadhsc (1370237_at)","5% alcohol group, Mean Contr 8.793343",8.481
same,"Mean 5%, Asah1 (1374770_at)","5% alcohol group, Mean Contr 9.074708",8.62
same,"Mean 5%, Arts1 (1368356_a_at)","5% alcohol group, Mean Contr 9.55972",9.182
same,"Mean 5%, Ndufb5_predicted (1388304_at)","5% alcohol group, Mean Contr 10.12286",9.747
same,"Mean 5%, MGC72992 (1389325_at)","5% alcohol group, Mean Contr 10.24563",9.919
same,"Mean 5%, Vps35_mapped (1372806_at)","5% alcohol group, Mean Contr 10.46183",10.13
same,"Mean 10%, probe set 1385639_at","10% alcohol group, Mean Contr 4.981165",4.259
same,"Mean 10%, Inpp1 (1394340_at)","10% alcohol group, Mean Contr 5.05511",4.269
same,"Mean 10%, RT1-Aw2 (1379496_at)","10% alcohol group, Mean Contr 5.19844",4.376
same,"Mean 10%, Trp53rk_predicted (1379488_at)","10% alcohol group, Mean Contr 5.228085",4.494
same,"Mean 10%, Enpp5 (1388926_at)","10% alcohol group, Mean Contr 5.277582",4.551
same,"Mean 10%, Prdm2_mapped (1381229_at)","10% alcohol group, Mean Contr 5.346211",4.661
same,"Mean 10%, RGD1564011_predicted (1375191_at)","10% alcohol group, Mean Contr 5.471081",4.639
same,"Mean 10%, Centa2 (1369725_at)","10% alcohol group, Mean Contr 5.497342",4.692
same,"Mean 10%, Transcribed locus (1383789_at)","10% alcohol group, Mean Contr 5.574571",4.986
same,"Mean 10%, Transcribed locus (1392286_at)","10% alcohol group, Mean Contr 5.585624",4.791
same,"Mean 10%, Mcpt6 (1387334_at)","10% alcohol group, Mean Contr 5.601581",4.849
same,"Mean 10%, Ggps1 (1377866_a_at)","10% alcohol group, Mean Contr 5.646626",4.808
same,"Mean 10%, Transcribed locus (1389718_at)","10% alcohol group, Mean Contr 5.751838",4.745
same,"Mean 10%, Transcribed locus (1377021_at)","10% alcohol group, Mean Contr 5.80011",4.752
same,"Mean 10%, Cp (1368418_a_at)","10% alcohol group, Mean Contr 5.816824",5.05
same,"Mean 10%, LOC303515 (1383571_at)","10% alcohol group, Mean Contr 5.867879",5.002
same,"Mean 10%, Transcribed locus (1389111_at)","10% alcohol group, Mean Contr 5.875325",4.794
same,"Mean 10%, Transcribed locus (1393980_at)","10% alcohol group, Mean Contr 5.991591",4.943
same,"Mean 10%, Pcmtd2_predicted (1374454_at)","10% alcohol group, Mean Contr 6.083112",4.612
same,"Mean 10%, Plek (1390687_at)","10% alcohol group, Mean Contr 6.105485",4.933
same,"Mean 10%, Cdca7 (1374540_at)","10% alcohol group, Mean Contr 6.195992",4.948
same,"Mean 10%, Cul2_predicted (1378127_at)","10% alcohol group, Mean Contr 6.258107",5.032
